Results on 17 compounds are retold here after ChEMBL document CHEMBL1773004, “1-[(1-methyl-1H-imidazol-2-yl)methyl]-4-phenylpiperidines as mGluR2 positive allosteric modulators for the treatment of psychosis” (J Med Chem, 2011).

Some results are limits rather than exact numbers.

Sequence of Metabotropic glutamate receptor 2 (P31421 whole entry): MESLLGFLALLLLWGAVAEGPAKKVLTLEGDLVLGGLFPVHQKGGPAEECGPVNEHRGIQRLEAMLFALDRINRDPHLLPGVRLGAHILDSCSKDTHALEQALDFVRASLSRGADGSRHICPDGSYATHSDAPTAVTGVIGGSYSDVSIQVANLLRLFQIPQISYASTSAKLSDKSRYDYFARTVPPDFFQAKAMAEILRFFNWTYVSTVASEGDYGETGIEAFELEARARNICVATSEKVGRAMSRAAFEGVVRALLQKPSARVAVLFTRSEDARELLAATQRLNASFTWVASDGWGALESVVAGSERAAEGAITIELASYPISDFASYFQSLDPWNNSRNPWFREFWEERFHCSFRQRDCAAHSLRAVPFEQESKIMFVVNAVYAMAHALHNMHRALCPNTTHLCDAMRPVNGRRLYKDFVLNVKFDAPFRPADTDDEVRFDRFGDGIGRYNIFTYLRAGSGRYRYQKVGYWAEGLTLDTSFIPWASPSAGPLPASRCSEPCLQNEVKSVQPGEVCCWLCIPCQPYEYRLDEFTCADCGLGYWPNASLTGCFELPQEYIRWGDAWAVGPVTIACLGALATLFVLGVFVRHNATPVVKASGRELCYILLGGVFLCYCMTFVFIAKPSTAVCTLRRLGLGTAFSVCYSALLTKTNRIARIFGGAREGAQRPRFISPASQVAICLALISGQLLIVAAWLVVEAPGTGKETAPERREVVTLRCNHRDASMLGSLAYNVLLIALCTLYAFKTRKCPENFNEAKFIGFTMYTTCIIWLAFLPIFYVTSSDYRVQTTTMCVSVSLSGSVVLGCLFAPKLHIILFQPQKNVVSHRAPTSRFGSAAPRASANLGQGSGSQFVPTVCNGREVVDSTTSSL
Sequence of D(2) dopamine receptor (P61169 whole entry): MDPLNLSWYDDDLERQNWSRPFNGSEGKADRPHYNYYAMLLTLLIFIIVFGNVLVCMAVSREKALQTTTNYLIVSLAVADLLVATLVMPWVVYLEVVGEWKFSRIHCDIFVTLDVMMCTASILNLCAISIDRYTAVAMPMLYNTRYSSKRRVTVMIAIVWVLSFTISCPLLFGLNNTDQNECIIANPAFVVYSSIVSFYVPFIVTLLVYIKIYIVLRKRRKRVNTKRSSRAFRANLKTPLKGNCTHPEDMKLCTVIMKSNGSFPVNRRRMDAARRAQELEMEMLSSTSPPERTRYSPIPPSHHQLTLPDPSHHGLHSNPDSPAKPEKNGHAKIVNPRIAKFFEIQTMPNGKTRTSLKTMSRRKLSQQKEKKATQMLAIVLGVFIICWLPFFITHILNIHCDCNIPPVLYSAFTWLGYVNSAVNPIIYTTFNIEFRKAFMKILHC

One experiment concerns the target D(2) dopamine receptor (Rattus norvegicus, UniProt P61169). The experiment in a line: Displacement of [3H]spiperone from dopamine D2 receptor in rat corpus striatum by beta plate scintillation counting. The experiment is classed as tissue-based. (Loss of bound radioactivity is the signal in a displacement assay; it reports binding, not function.)
Turning to `C[C@H]1CN(Cc2nc3ncccc3n2C)CC[C@H]1c1ccc(C(F)(F)F)cc1` (racemic), the inhibitory constant (Ki) – broadly, the dissociation constant of the complex between target and ligand, obtained from inhibition or displacement – was above 2.8 µM.

A further experiment has as its target Metabotropic glutamate receptor 2 (Rattus norvegicus, UniProt P31421). Description: Positive allosteric modulation of rat mGluR2 expressed in HEK293 cells co-expressing Galpha15 G protein assessed as increase in glutamate-induced intracellular calcium release by FLIPR assay. The experiment is classed as functional, cell-based. In general terms: A change in cytosolic calcium serves as a functional read-out for many receptors and channels.
For the compound `COc1ccccc1N1CCN(Cc2c(Br)c(=O)n(-c3ccccc3)n2C)CC1`, the EC50 (in general, the midpoint of the concentration-response curve) was found to be 0.891 µM.
For `Cn1c(CN2CCC(c3cccc(C#N)c3)CC2)nc2ccccc21`, the EC50 came to 1.62 µM.
`Cn1c(CN2CCC(c3ccccc3F)CC2)nc2ccccc21`: the EC50 turned out to be 0.022 µM.
With `Cn1c(CN2CCC(c3ccccc3Cl)CC2)nc2ccccc21`, the EC50 came to 0.144 µM.
Take `COc1cc(C(F)(F)F)ccc1[C@H]1CCN(Cc2nc3ncccc3n2C)C[C@H]1C`: the 50% effective concentration (EC50) stood at 0.787 µM.
On the same count and under the same terms, for `C[C@@H]1CN(Cc2nc3ncccc3n2C)CC[C@@H]1c1ccc(Cl)cc1F` the value was above 1.81 µM; for `Cn1c(CN2CCC(c3cccc(F)c3)CC2)nc2ccccc21`, 3.31 µM.
Consider `Cn1c(CN2CCC(c3ccc(C(F)(F)F)cc3)C(O)C2)nc2ncccc21` (trans isomer), for which the EC50 was above 10 µM.
On the same count and under the same terms, the value for `Cn1c(CN2CCC(c3ccc(C(F)(F)F)cc3)CC2)nc2cccnc21` was 0.285 µM; that for `Cn1c(CN2CCC(c3ccccc3)CC2)nc2ccccc21` was 0.212 µM.
On to `CNC(=O)c1cccc(C2CCN(Cc3nc4ccccc4n3C)CC2)c1`, for which the half-maximal effective concentration (EC50) was above 10 µM.
In the case of `C[C@@H]1CN(Cc2nc3ncccc3n2C)CC[C@@H]1c1ccc(C(F)(F)F)cc1F`, the EC50 was 0.993 µM.
On to `Cn1c(CN2CCC(c3ccc(C(F)(F)F)cc3)CC2)nc2ccncc21`, for which the EC50 was 0.196 µM.
As for `Cc1cc(C2CCN(Cc3nc4ccccc4n3C)CC2)nc(N2CCCC2)n1`, the EC50 was determined as 4.79 µM.
For `Cn1c(CN2CCC(c3ccc(Cl)cc3F)CC2)nc2ccccc21`, the half-maximal effective concentration (EC50) was determined as 0.0076 µM.
In the case of `C[C@H]1CN(Cc2nc3ncccc3n2C)CC[C@H]1c1ccc(C(F)(F)F)cc1` (racemic), the EC50 amounted to 0.111 µM.
Turning to `Cn1c(CN2CCC(c3ccccc3C(F)(F)F)CC2)nc2ccccc21`, the EC50 stood at 0.109 µM.
